Results from patent US20030232862A1 (priority 2002, published 2003).
“Also recorded” adds a separate entry of the source. Structures can show the parent of a compound that is named as a salt.

Experiments:
[1] = tested on: SW-480 colon adenocarcinoma cells
[2] = tested on: HT-29 colon adenocarcinoma cells; test: Apoptosis by DNA fragmentation assay in HT-29 cells; assay type: cell-based, human; details: for Apoptosis: Table 9 qualitative profile; for Apoptosis: key: −: Not active; +: Slightly active; + +: Moderately active; + + +: Strongly active; + + + +: Highly active
[3] = biological target: cGMP PDE purified from human colon HT-29 cultured tumor cells (Homo sapiens, UniProt O76074); test: cGMP PDE inhibition assay; assay type: biochemical; details: for PDE Inhibition: Table 9 qualitative profile; for IC50: read-out: IC50 for inhibition of cGMP PDE
[4] = tested on: HT-29 cells; test: Growth inhibition of HT-29 cells (SRB assay; trypan blue counting in time course); assay type: cell-based, human; details: for Growth Inhibition: Table 9 qualitative profile
[5] = tested on: premalignant lesions in mouse mammary gland organ culture; test: Mammary gland organ culture model; assay type: cell-based; details: Table 9 qualitative profile; note: key: −: Not active; +: Slightly active; + +: Moderately active; + + +: Strongly active; + + + +: Highly active
Source text: Test compounds identified by the above methods can be tested for antineoplastic activity by their ability to inhibit the incidence of pre-neoplastic lesions in a mammary gland organ culture system. This mouse mammary gland organ culture technique has been successfully used by other investigators to study the effects of known antineoplastic agents such as certain NSAIDs, retinoids, tamoxifen, selenium, and certain natural products, and is useful for validation of the screening method of the present invention.
For example, female BALB/c mice can be treated with a combination of estradiol and progesterone daily, in order to prime the glands to be responsive to hormones in vitro. The animals are sacrificed, and thoracic mammary glands are excised aseptically and incubated for ten days in growth media supplemented with insulin, prolactin, hydrocortisone, and aldosterone. DMBA (7,12-dimethylbenz(a)anthracene) is added to medium to induce the formation of premalignant lesions. Fully developed glands are then deprived of prolactin, hydrocortisone, and aldosterone, resulting in the regression of the glands but not the pre-malignant lesions.
The test compound is dissolved in DMSO and added to the culture media for the duration of the culture period. At the end of the culture period, the glands are fixed in 10% formalin, stained with alum carmine, and mounted on glass slides. The incidence of forming mammary lesions is the ratio of the glands with mammary lesions to […]. The incidence of mammary lesions in test compound treated glands is compared with that of the untreated glands.
The extent of the area occupied by the mammary lesions can be quantitated by projecting an image of the gland onto a digitation pad. The area covered by the gland is traced on the pad and considered as 100% of the area. The space covered by each of the non-regressed structures is also outlined on the digitization pad and quantitated by the computer.
Mammary gland organ culture experiment were performed as previously described (Mehta and Moon, Cancer Research, 46: 5832-5835, 1986).

[6] = biological target: T1, Cyclooxygenase (COX) (Ovis aries, UniProt P05979); test: COX inhibition assay, single dose screen (Table 2); assay type: biochemical
T1 sequence (P05979 25-600): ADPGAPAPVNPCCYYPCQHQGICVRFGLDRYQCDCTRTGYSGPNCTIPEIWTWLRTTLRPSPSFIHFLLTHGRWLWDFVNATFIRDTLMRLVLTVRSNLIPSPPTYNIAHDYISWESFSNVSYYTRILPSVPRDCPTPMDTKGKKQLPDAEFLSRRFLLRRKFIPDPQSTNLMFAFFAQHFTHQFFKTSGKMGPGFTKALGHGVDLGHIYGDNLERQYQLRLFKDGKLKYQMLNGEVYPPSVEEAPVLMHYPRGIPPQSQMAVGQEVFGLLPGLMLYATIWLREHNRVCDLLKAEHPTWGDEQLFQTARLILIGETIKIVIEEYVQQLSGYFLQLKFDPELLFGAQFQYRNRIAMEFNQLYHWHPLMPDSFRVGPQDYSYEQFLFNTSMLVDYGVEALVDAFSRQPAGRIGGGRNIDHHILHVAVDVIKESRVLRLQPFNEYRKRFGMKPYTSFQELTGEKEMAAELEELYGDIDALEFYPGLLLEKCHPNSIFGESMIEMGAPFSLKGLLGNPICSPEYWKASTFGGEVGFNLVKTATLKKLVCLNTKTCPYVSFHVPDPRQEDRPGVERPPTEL

[7] = biological target: T2, PDE Peak A (PDE5) from SW480 cells (Homo sapiens, UniProt O76074); test: cGMP hydrolysis by PDE Peak A (PDE5) isolated from SW480 cells; assay type: biochemical
T2 construct: To isolate the novel phosphodiesterase from SW480, approximately four hundred million SW480 cells were grown to confluence; endogenous in cells; host or cells: SW480 colon cancer cells; 105,000 g supernatant, DEAE-Trisacryl M fraction

[8] = biological target: T3, novel cGMP-specific PDE Peak B from SW480 cells (Homo sapiens, UniProt O00408); test: cGMP hydrolysis by novel PDE Peak B isolated from SW480 cells; assay type: biochemical
T3 construct: IC50 Peak B (μM)

[9] = biological target: T4, purified cyclooxygenase (Type 1) from ram seminal vesicles (Ovis aries, UniProt P05979); test: Purified cyclooxygenase (Type 1) activity; assay type: biochemical; details: FIG. 5
T4 construct: using purified cyclooxygenase from ram seminal vesicles as described previously; from tissue; host or cells: ram seminal vesicles
T4 sequence (P05979 25-600): T1 sequence (P05979 25-600)

[10] = tested on: human breast xenograft; details: in vivo; cited from earlier work
[11] = tested on: PDE4 purified from human colon HT-29 cultured tumor cells; test: PDE4 inhibition assay; assay type: biochemical
Method: (Thompson, W. J., Teraski, W. L., Epstein, P. M., Strada, S. J., Advances in Cyclic Nucleotide Research, 10:69-92, 1979, which is incorporated herein by reference). […] The mixture is incubated at 30° C. for 10 minutes with isolated PDE of this invention. Reactions are terminated, for example, by boiling the reaction mixture for 75 seconds. After cooling on ice, 100 μl of 0.5 mg/mL snake venom (O. Hannah venom available from Sigma) is added and incubated for 10 minutes at 30° C. This reaction is then terminated by the addition of an alcohol, e.g. 1 mL of 100% methanol. Assay samples are applied to 1 mL Dowex 1-X8 column; and washed with 1 mL of 100% methanol. The amount of radioactivity in the breakthrough and the wash from the column is combined and measured with a scintillation counter. The degree of phosphodiesterase inhibition is determined by calculating the amount of radioactivity in drug-treated reactions and comparing against a control sample (a reaction mixture lacking the tested compound but with drug solvent).

[12] = tested on: SW-480 colon adenocarcinoma cells; test: Apoptosis fold induction protocol (DNA fragmentation, Table 4); details: Homo sapiens, SW480, read-out: Fold induction at 100 μM (apoptosis), 100 μM; cell line not given
[13] = biological target: T5, cGMP binding sites of GST-cGB-PDE5 fusion protein (Homo sapiens, UniProt O76074); test: cGMP binding assay with GST-cGB-PDE5 fusion protein; details: 3H-cGMP 2 μM
T5 construct: made in house; host or cells: E. coli BL21 (DE3)

[14] = tested on: PrEC primary prostate epithelial cells derived from normal prostate; test: Histone-associated DNA fragmentation in PrEC cells; assay type: cell-based; details: 50 μM, up to 4 days
Method: (§1) The androgen-sensitive prostate tumor cell line, LNCaP (from ATCC (Rockville, Md.)) was propagated under standard conditions using […] medium containing 5% fetal calve serum and 2 mM glutamine. Primary prostate epithelial cell cultures (PrEC) derived from normal prostate (from Clonetics Inc. (San Diego, Calif.)) were grown under the same conditions as the tumor cell line except a serum-free medium optimized for the growth of such cultures was used (Clonetics Inc). For the experiments, LNCaP or PrEC cells were seeded in 96 well plates at a density of 10,000 cells per well. After 24 hours, the cells were treated with either vehicle (0.1% DMSO) or 50 μM Compound I (free base) solubilized in DMSO. After various drug treatment times (4, 24, 48, 72, or 99 hours) the cells were lysed and processed for measurement of histone-associated DNA as an indicator of apoptotic cell death (see, Piazza et al., Cancer Research 57: 2452-2459, 1997).

[15] = Seven-day dose-range finding study in rats; assay type: in vivo; details: any dose level
[16] = Single, escalating dose human study; assay type: in vivo
[17] = dog, in vivo
[18] = tested on: LNCaP prostate tumor cell line; test: Histone-associated DNA fragmentation in LNCaP cells; assay type: cell-based; details: 50 μM, up to 4 days
Method: as §1

[19] = 28-day study in rats; assay type: in vivo

T3 sequence (O00408 whole entry): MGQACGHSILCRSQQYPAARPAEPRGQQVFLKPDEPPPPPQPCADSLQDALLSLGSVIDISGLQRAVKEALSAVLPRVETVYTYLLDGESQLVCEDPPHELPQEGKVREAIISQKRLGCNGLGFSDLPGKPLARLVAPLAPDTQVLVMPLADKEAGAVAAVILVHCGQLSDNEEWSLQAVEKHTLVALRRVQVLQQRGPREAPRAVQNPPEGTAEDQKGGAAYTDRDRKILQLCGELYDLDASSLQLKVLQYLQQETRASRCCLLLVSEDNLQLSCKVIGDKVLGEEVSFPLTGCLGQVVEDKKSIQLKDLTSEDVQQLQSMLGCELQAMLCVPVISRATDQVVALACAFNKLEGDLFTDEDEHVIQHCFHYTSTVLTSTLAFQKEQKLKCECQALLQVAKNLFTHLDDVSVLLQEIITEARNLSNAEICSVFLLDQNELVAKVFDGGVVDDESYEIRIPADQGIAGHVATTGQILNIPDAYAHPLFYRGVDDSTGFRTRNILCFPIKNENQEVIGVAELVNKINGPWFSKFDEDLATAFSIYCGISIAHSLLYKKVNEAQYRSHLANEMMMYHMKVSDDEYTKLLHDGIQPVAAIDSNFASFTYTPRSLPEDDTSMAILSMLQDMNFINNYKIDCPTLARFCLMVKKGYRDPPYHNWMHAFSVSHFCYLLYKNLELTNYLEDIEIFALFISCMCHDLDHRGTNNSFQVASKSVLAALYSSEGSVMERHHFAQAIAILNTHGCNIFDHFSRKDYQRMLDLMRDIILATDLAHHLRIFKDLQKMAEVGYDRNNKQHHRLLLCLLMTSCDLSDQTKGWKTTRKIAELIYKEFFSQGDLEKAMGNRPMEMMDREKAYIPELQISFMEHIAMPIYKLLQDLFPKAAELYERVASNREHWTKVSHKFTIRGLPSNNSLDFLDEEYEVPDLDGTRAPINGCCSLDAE

SMILES: CCN(CC)CCSC12CC(=O)OC1(C)/C(=C/c1ccc(S(C)(=O)=O)cc1)c1ccc(F)cc12 (racemic) [A, rac-threo-(E)-1-(N,N′-diethylaminoethanethio)-1-(butan-1′,4′-olido)-[3′,4′:1,2]-6-fluoro-2-methyl-3-(p-methylsulfonylbenzylidene)-indan]
- Fold induction at 100 μM (apoptosis) [1]: <2.0 fold
- Apoptosis [2]: + +
- % Inhibition at 10 μM (cGMP PDE) [3]: <25%
- PDE Inhibition [3]: −
- % Inhibition at 100 μM (growth) ([4]; 100 μM): 68%
- Growth Inhibition [4]: + + +
- Mammary Gland Organ Culture [5]: + +
- % Inhibition at 100 μM (cyclooxygenase) ([6]; 100 μM): <25%

SMILES: COc1cc(/C=C2/C(C)=C(CC(=O)NCc3ccccc3)c3cc(F)ccc32)cc(OC)c1OC [Compound E, (Z)-5-Fluoro-2-methyl-1-(3,4,5-trimethoxybenzylidene)-3-indenylacetamide, N-benzyl]
- competitive (with cGMP) inhibition/binding, Peak A [7]: competitively (with cGMP) bind; also recorded: competitively inhibited
- Apoptosis [2]: + + + +
- competitive (with cGMP) inhibition/binding, Peak B [8]: competitively (with cGMP) binds; also recorded: competitively inhibited
- COX-I inhibition [9]: neither test compound B and E significantly inhibits COX-I
- % Inhibition at 10 μM (cGMP PDE) [3]: 75%
- PDE Inhibition [3]: + + + +
- IC50 [3]: 0.08 µM
- Growth Inhibition [4]: + + + +
- Mammary Gland Organ Culture [5]: + + + +

SMILES: COc1cc2ncnc(Nc3ccc(F)c(Cl)c3)c2cc1OCCCN1CCOCC1 [Iressa, 4-quinazolinamine, N-(3-chloro-4-fluorophenyl)-7-methoxy-6-[3-(4-morpholinyl)propoxy]-(9CI)]
- human breast xenograft growth [10]: inhibits human breast xenograft growth

SMILES: COc1cc(/C=C2/C(C)=C(CC(=O)O)c3cc(F)ccc32)cc(OC)c1OC [Compound B, (Z)-5-Fluoro-2-methyl-1-(3,4,5-trimethoxybenzylidene)-3-acetic acid]
- IC50 [11]: 58 µM
- fold induction at 100 µM [12]: > 2
- EC50 ([2]; Homo sapiens, HT-29, 48 hours): ~175 µM
- Apoptosis [2]: + + +
- COX-I inhibition [9]: neither test compound B and E significantly inhibits COX-I
- PDE Inhibition [3]: + + +
- inhibition at 10 µM ([3]; read-out: % Inhibition at 10 μM (cGMP PDE), 10 μM): < 25%
- IC50 [3]: 18 µM
- inhibition at 20 µM ([3]; read-out: inhibition of cGMP PDE at 20 μM, 20 μM): > 50%
- Growth Inhibition [4]: + + +
- competition with cGMP in binding of GST-cGB-PDE5 [13]: do not bind to the cGMP binding sites of PDE5
- Mammary Gland Organ Culture [5]: + +
- inhibition at 100 µM [6]: < 25%
- COX Inhibition ([6]; Table 9 qualitative profile): −

SMILES: CC1=C(CC(=O)NCc2ccccc2)c2cc(F)ccc2/C1=C\c1ccncc1 [Compound I, (Z)-5-fluoro-2-methyl-(4-pyridylidene)-3-(N-benzyl)indenylacetamide hydrochloride]
- DNA fragmentation in PrEC cells [14]: did not affect DNA fragmentation
- hematology, blood chemistry, microscopic pathology, seven-day study [15]: No hematological or blood chemistry changes nor any microscopic pathology changes
- safety in human study [16]: safe
- drug-related effects, single and seven consecutive doses in dogs [17]: At no time in either dosing phase were any obvious signs of drug-related effects observed
- signs of toxicity, single dose in dogs ([17]; 1000 mg/kg): no signs of toxicity
- histone-associated fragmented DNA in LNCaP cell cultures [18]: time-dependent increase
- liver weights, 28-day study ([19]; 2000 mg/kg/day): statistically significant increase in liver weights
- thyroid weights, 28-day study ([19]; 2000 mg/kg/day): statistically significant increases in thyroid weights
- histopathological evaluation, 28-day study ([19]; generally limited to a small number of animals at 2000 mg/kg/day): traces of follicular cell hypertrophy, increased numbers of mitotic figures (suggestive of possible cell proliferation) in the thyroid gland and mild centrilobular hypertrophy in the liver
